Patent US7396837B2, “Antitumoral analogs of lamellarins” (Pharma Mar, S.A.U., priority 2002, dated 2008)
Like-named read-outs stand apart in the source and are kept apart here.

Experiments:
Format in all cases: cell-based
K-562 = assay: SRB colorimetric cell growth inhibition assay, K-562; conditions: for CC50: LC=cell killing (cytotoxic effect); for IC (TGI): TGI=total growth inhibition (cytostatic effect), read-out: TGI K-562; for GI50: GI=growth inhibition, read-out: GI50 K-562
Procedure, shortened: (§1)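 After uninterrupted treatment, cultures are fixed and stained with sulforhodamine B, and absorbance reflects cell growth and viability. Each value represents the average of triplicate wells with SD.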

A-549 = assay: SRB colorimetric cell growth inhibition assay, A-549; conditions: for GI50: A-549, GI=growth inhibition, read-out: GI50 A-549; for CC50 / IC (TGI): Homo sapiens; for CC50: LC=cell killing (cytotoxic effect); for IC (TGI): TGI=total growth inhibition (cytostatic effect), read-out: TGI A-549
Procedure, shortened: as §1

SK-MEL-28 = assay: SRB colorimetric cell growth inhibition assay, SK-MEL-28; conditions: for GI50: GI=growth inhibition, read-out: GI50 MEL-28
Procedure, shortened: as §1

HT-29 = assay: SRB colorimetric cell growth inhibition assay, HT-29; conditions: for GI50: HT-29, GI=growth inhibition, read-out: GI50 HT-29; for CC50 / IC (TGI): Homo sapiens; for CC50: LC=cell killing (cytotoxic effect); for IC (TGI): TGI=total growth inhibition (cytostatic effect), read-out: TGI HT-29
Procedure, shortened: as §1

LoVo = assay: SRB colorimetric cell growth inhibition assay, LoVo; conditions: for CC50: LC=cell killing (cytotoxic effect); for IC (TGI): TGI=total growth inhibition (cytostatic effect), read-out: TGI LOVO; for GI50: GI=growth inhibition, read-out: GI50 LOVO
Procedure, shortened: as §1

LoVo-Dox = assay: SRB colorimetric cell growth inhibition assay, LoVo-Dox (MDR); conditions: for CC50: LC=cell killing (cytotoxic effect); for IC (TGI): TGI=total growth inhibition (cytostatic effect), read-out: TGI LOVO-DOX; for GI50: GI=growth inhibition, read-out: GI50 LOVO-DOX
Procedure, shortened: as §1

DU-145 = assay: SRB colorimetric cell growth inhibition assay, DU-145; conditions: for GI50: GI=growth inhibition, read-out: GI50 DU-145; for TGI DU-145: total growth inhibition (cytostatic effect)
Procedure, shortened: as §1

LNCaP = assay: SRB colorimetric cell growth inhibition assay, LNCaP; conditions: for CC50: cell killing (cytotoxic effect); for IC (TGI): total growth inhibition (cytostatic effect), read-out: TGI LN-caP; for GI50: GI=growth inhibition, read-out: GI50 LN-caP
Procedure, shortened: as §1

SK-BR-3 = assay: SRB colorimetric cell growth inhibition assay, SK-BR-3; conditions: for CC50: cell killing (cytotoxic effect); for GI50: GI=growth inhibition, read-out: GI50 SK-BR-3
Procedure, shortened: as §1

IGROV = assay: SRB colorimetric cell growth inhibition assay, IGROV; conditions: for GI50: GI=growth inhibition, read-out: GI50 IGROV
Procedure, shortened: as §1

IGROV-ET = assay: SRB colorimetric cell growth inhibition assay, IGROV-ET (ET-743 resistant); conditions: for GI50: GI=growth inhibition, read-out: GI50 IGROV-ET; for CC50: cell killing (cytotoxic effect)
Procedure, shortened: as §1

PANC-1 = assay: SRB colorimetric cell growth inhibition assay, PANC-1; conditions: for CC50 / IC (TGI): Homo sapiens; for CC50: LC=cell killing (cytotoxic effect); for IC (TGI): TGI=total growth inhibition (cytostatic effect), read-out: TGI PANC-1; for GI50: PANC-1, GI=growth inhibition, read-out: GI50 PANC-1
Procedure, shortened: as §1

SKOV-3 = assay: SRB colorimetric cell growth inhibition assay, SKOV-3; conditions: Homo sapiens; for GI50: SK-OV-3, SKOV-3, GI=growth inhibition, read-out: GI50 SKOV-3; for IC (TGI): total growth inhibition (cytostatic effect), read-out: TGI SKOV-3
Procedure, shortened: (§2)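 Sulforhodamine B colorimetric assay of cell growth and viability, mean ± SD of triplicate wells. Parameters derived: GI (growth inhibition), TGI (total growth inhibition, cytostatic) and LC (cell killing, cytotoxic).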

[1] = SRB colorimetric cell growth inhibition assay, H-MEC-1; conditions: human
Procedure, shortened: as §2

H-MEC-1 = assay: as above; conditions: Homo sapiens, HMEC-1, H-MEC-1; for GI50: GI=growth inhibition, read-out: GI50 H-MEC-1; for IC (TGI): total growth inhibition (cytostatic effect), read-out: TGI H-MEC-1
Procedure, shortened: as §2

COc1cc(-c2c3c4cc(OC)c(OC(=O)[C@@H](N)Cc5ccccc5)cc4oc(=O)c3n3ccc4c(OC(=O)[C@@H](N)Cc5ccccc5)c(OC)c(OC)cc4c23)ccc1OC(=O)[C@@H](N)Cc1ccccc1 [Compound 31]
CC50 (K-562; Homo sapiens, K562, K-562, read-out: LC50 K-562): 7620 nM | IC (TGI) (K-562; Homo sapiens, K562, K-562): 2470 nM | GI50 (K-562; K-562): 410 nM | GI50 (A-549): 433 nM | CC50 (A-549; A549, A-549, read-out: LC50 A-549): 4600 nM | IC (TGI) (A-549; A549, A-549): 1420 nM | CC50 (SK-MEL-28; Homo sapiens, SK-MEL-28, MEL-28, cell killing (cytotoxic effect), read-out: LC50 MEL-28): 7620 nM | GI50 (SK-MEL-28; MEL-28): 482 nM | TGI MEL-28 (SK-MEL-28; MEL-28, total growth inhibition (cytostatic effect)): 7.62E−06 Molar | GI50 (HT-29): 7620 nM | CC50 (HT-29; HT-29, HT-29, read-out: LC50 HT-29): 7620 nM | IC (TGI) (HT-29; HT-29, HT-29): 7620 nM | CC50 (LoVo; Homo sapiens, LoVo, read-out: LC50 LOVO): 7620 nM | IC (TGI) (LoVo; Homo sapiens, LoVo): 5350 nM | GI50 (LoVo; LOVO): 1980 nM | CC50 (LoVo-Dox; Homo sapiens, LOVO-DOX, read-out: LC50 LOVO-DOX): 7620 nM | IC (TGI) (LoVo-Dox; Homo sapiens, LOVO-DOX): 7620 nM | GI50 (LoVo-Dox; LOVO-DOX): 1490 nM | GI50 (DU-145; DU-145): 301 nM | CC50 (DU-145; DU-145, cell killing (cytotoxic effect), read-out: LC50 DU-145): 7620 nM | TGI DU-145 (DU-145; DU-145): 8.61E−07 Molar | CC50 (LNCaP; Homo sapiens, LNCaP, LN-caP, read-out: LC50 LN-caP): 3430 nM | IC (TGI) (LNCaP; Homo sapiens, LNCaP, LN-caP): 1450 nM | GI50 (LNCaP; LN-caP): 548 nM | CC50 (SK-BR-3; Homo sapiens, SK-BR-3, SK-BR-3, read-out: LC50 SK-BR-3): 7620 nM | GI50 (SK-BR-3; SK-BR-3): 1800 nM | TGI SK-BR-3 (SK-BR-3; SK-BR-3, total growth inhibition (cytostatic effect)): 7.62E−06 Molar | GI50 (IGROV; IGROV): 1260 nM | CC50 (IGROV; IGROV, cell killing (cytotoxic effect), read-out: LC50 IGROV): 7620 nM | TGI IGROV (IGROV; IGROV, total growth inhibition (cytostatic effect)): 7.62E−06 Molar | GI50 (IGROV-ET; IGROV-ET): 1390 nM | CC50 (IGROV-ET; IGROV-ET, read-out: LC50 IGROV-ET): 7620 nM | TGI IGROV-ET (IGROV-ET; IGROV-ET, total growth inhibition (cytostatic effect)): 4.00E−06 Molar | CC50 (PANC-1; PANC-1, PANC-1, read-out: LC50 PANC-1): 7620 nM | IC (TGI) (PANC-1; PANC-1, PANC-1): 7620 nM | GI50 (PANC-1): 1960 nM | GI50 (SKOV-3): 524 nM | LC50 (concentration causing 50% net cell killing) (SKOV-3; SK-OV-3, SKOV-3, cell killing (cytotoxic effect), read-out: LC50 SKOV-3): 7620 nM | IC (TGI) (SKOV-3; SK-OV-3, SKOV-3): 4220 nM | LC50 (concentration giving 50% net cell killing) ([1]; H-MEC-1 cells, H-MEC-1, cell killing (cytotoxic effect), read-out: LC50 H-MEC-1): 565 nM | GI50 (H-MEC-1): 119 nM | IC (TGI) (H-MEC-1): 260 nM

COc1cc(-c2c3c4cc(OC)c(OC(=O)[C@@H](N)C(C)C)cc4oc(=O)c3n3ccc4c(OC(=O)[C@@H](N)C(C)C)c(OC)c(OC)cc4c23)ccc1OC(=O)[C@@H](N)C(C)C [Compound 35]
GI50 (K-562; Homo sapiens, K562, K-562): 80.8 nM | IC (TGI) (K-562; Homo sapiens, K562, K-562): 975 nM | CC50 (K-562; Homo sapiens, K562, read-out: LC50 K-562, K-562): 4820 nM | GI50 (A-549): 52.4 nM | IC (TGI) (A-549; A549, A-549): 259 nM | CC50 (A-549; A549, read-out: LC50 A-549, A-549): 6090 nM | IC (TGI) (SK-MEL-28; Homo sapiens, SK-MEL-28, MEL-28, total growth inhibition (cytostatic effect), read-out: TGI MEL-28): 915 nM | GI50 (SK-MEL-28; MEL-28): 54.6 nM | CC50 (SK-MEL-28; human): 2770 nM | GI50 (HT-29): 1180 nM | IC (TGI) (HT-29; HT-29, HT-29): 2440 nM | CC50 (HT-29; HT-29, read-out: LC50 HT-29, HT-29): 5060 nM | CC50 (LoVo; Homo sapiens, LoVo, read-out: LC50 LOVO, LOVO): 2600 nM | GI50 (LoVo; Homo sapiens, LoVo): 207 nM | IC (TGI) (LoVo; Homo sapiens, LoVo): 705 nM | GI50 (LoVo-Dox; Homo sapiens, LOVO-DOX): 217 nM | IC (TGI) (LoVo-Dox; Homo sapiens, LOVO-DOX): 737 nM | CC50 (LoVo-Dox; Homo sapiens, read-out: LC50 LOVO-DOX, LOVO-DOX): 2800 nM | TGI DU-145 (DU-145; DU-145): 8.81E−08 Molar | GI50 (DU-145; Homo sapiens, DU-145, DU-145): 32.1 nM | CC50 (DU-145; human): 576 nM | GI50 (LNCaP; Homo sapiens, LNCaP, LN-caP): 88.1 nM | IC (TGI) (LNCaP; Homo sapiens, LNCaP, LN-caP): 468 nM | CC50 (LNCaP; Homo sapiens, LNCaP, read-out: LC50 LN-caP, LN-caP): 2220 nM | IC (TGI) (SK-BR-3; Homo sapiens, SK-BR-3, SK-BR-3, total growth inhibition (cytostatic effect), read-out: TGI SK-BR-3): 689 nM | CC50 (SK-BR-3; Homo sapiens, SK-BR-3, read-out: LC50 SK-BR-3, SK-BR-3): 4030 nM | GI50 (SK-BR-3; SK-BR-3): 228 nM | GI50 (IGROV; Homo sapiens, IGROV): 152 nM | IC (TGI) (IGROV; Homo sapiens, IGROV, total growth inhibition (cytostatic effect), read-out: TGI IGROV): 907 nM | CC50 (IGROV; human): 4050 nM | GI50 (IGROV-ET; Homo sapiens, IGROV-ET): 192 nM | IC (TGI) (IGROV-ET; Homo sapiens, IGROV-ET, total growth inhibition (cytostatic effect), read-out: TGI IGROV-ET): 855 nM | CC50 (IGROV-ET; Homo sapiens, read-out: LC50 IGROV-ET, IGROV-ET): 5450 nM | IC (TGI) (PANC-1; PANC-1, PANC-1): 1210 nM | CC50 (PANC-1; PANC-1, read-out: LC50 PANC-1, PANC-1): 3670 nM | GI50 (PANC-1): 178 nM | GI50 (SKOV-3): 113 nM | LC50 (concentration causing 50% net cell killing) (SKOV-3; SK-OV-3, read-out: LC50 SKOV-3): 3830 nM | IC (TGI) (SKOV-3; SK-OV-3, SKOV-3): 932 nM | LC50 (concentration giving 50% net cell killing) [1]: 82.6 nM | GI50 (H-MEC-1): 19.7 nM | IC (TGI) (H-MEC-1): 40.3 nM
